Here are results for one compound from ChEMBL document CHEMBL3588855, “Different structures of the two peroxisome proliferator-activated receptor gamma (PPARγ) ligand-binding domains in homodimeric complex with partial agonist, but not full agonist” (Bioorg Med Chem Lett, 2015).

Assay [1] addresses T1, Peroxisome proliferator-activated receptor gamma (Homo sapiens) (UniProt P37231).
T1 sequence (whole entry): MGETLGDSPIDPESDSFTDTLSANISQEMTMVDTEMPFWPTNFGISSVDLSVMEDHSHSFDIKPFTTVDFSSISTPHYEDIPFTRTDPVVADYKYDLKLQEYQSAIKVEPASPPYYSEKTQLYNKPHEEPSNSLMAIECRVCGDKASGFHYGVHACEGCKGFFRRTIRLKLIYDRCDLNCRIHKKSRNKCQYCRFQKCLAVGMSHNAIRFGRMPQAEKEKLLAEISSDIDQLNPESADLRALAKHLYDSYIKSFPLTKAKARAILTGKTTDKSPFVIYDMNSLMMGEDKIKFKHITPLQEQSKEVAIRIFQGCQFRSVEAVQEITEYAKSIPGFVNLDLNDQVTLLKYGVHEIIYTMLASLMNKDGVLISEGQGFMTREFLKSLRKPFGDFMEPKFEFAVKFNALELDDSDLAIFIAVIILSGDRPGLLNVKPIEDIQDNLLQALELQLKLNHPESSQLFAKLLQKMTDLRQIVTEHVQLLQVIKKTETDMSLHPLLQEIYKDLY
As to the kind of experiment: Agonist activity at human GAL4-tagged-PPARgamma transfected in monkey COS1 cells by transient transfection/luciferase reporter gene assay relative to 30 uM pioglitazone. The conditions noted are these: COS-1. In kind it is cell-based.

Assay [2] addresses T1, Peroxisome proliferator-activated receptor gamma (Homo sapiens). As to the kind of experiment: Agonist activity at human GAL4-tagged-PPARgamma transfected in monkey COS1 cells by transient transfection/luciferase reporter gene assay relative to 10 uM rosiglitazone. The note with it: COS-1. In kind it is cell-based. In general terms: A reporter such as luciferase makes a cellular process visible.

Molecules are shown by their SMILES.

For `CCCOc1ccc(C(=O)NS(=O)(=O)c2ccccc2)cc1CNC(=O)c1ccc(-c2ncccn2)cc1`, the %max in assay [1] and in assay [2] was 50% each time.
